# Measured values reported in the supplement of paper PMC10307832.
# Experiments:
# Assay in all cases: relative viability (nuclei count vs DMSO), 5 days (fraction); higher = more cells survive
# SK-MES-1 = system: SK-MES-1
# Procedure, shortened: (§1)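 Values are medians from duplicate plates. Each reflects relative viability, defined as the nuclei count of treated wells over that of vehicle wells. Lung cancer cell lines in 1536-well plates were pin-tool dosed one day after seeding with one drug alone or with a fixed anchor-drug dose plus five library-drug doses (not always all listed) in √10 steps, then fixed, stained and imaged at 4× after 5 days.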
# NCI-H1734 = system: NCI-H1734
# Procedure, shortened: as §1
# HCC-827 = system: HCC-827
# Procedure, shortened: as §1
# NCI-H2009 = system: NCI-H2009
# Procedure, shortened: as §1
# LOU-NH91 = system: LOU-NH91
# Procedure, shortened: as §1
# HARA = system: HARA
# Procedure, shortened: as §1
# NCI-H1395 = system: NCI-H1395
# Procedure, shortened: as §1
# BEN = system: BEN
# Procedure, shortened: as §1
# NCI-H661 = system: NCI-H661
# Procedure, shortened: as §1
# NCI-H2405 = system: NCI-H2405
# Procedure, shortened: as §1
# NCI-H1993 = system: NCI-H1993
# Procedure, shortened: as §1
# NCI-H2170 = system: NCI-H2170
# Procedure, shortened: as §1
# SK-LU-1 = system: SK-LU-1
# Procedure, shortened: as §1
# NCI-H1437 = system: NCI-H1437
# Procedure, shortened: as §1
# NCI-H2087 = system: NCI-H2087
# Procedure, shortened: as §1
# NCI-H647 = system: NCI-H647
# Procedure, shortened: as §1
# NCI-H1792 = system: NCI-H1792
# Procedure, shortened: as §1
# EKVX = system: EKVX
# Procedure, shortened: as §1
# NCI-H1355 = system: NCI-H1355
# Procedure, shortened: as §1
# HCC-366 = system: HCC-366
# Procedure, shortened: as §1
smiles,measurement,setting,value
O=c1cc(-c2cccc3c2Sc2ccccc2S3)oc(N2CCOCC2)c1 + Cc1nc(NC(=O)N2CCC[C@H]2C(N)=O)sc1-c1ccnc(C(C)(C)C(F)(F)F)c1 [Alpelisib] (partner 2 µM),relative viability,SK-MES-1; first compound 0.08 µM,0.864
same,relative viability,SK-MES-1; first compound 0.253 µM,1.09
same,relative viability,SK-MES-1; first compound 0.8 µM,0.993
same,relative viability,SK-MES-1; first compound 2.53 µM,0.824
same,relative viability,SK-MES-1; first compound 8 µM,0.845
same,relative viability,NCI-H1734; first compound 0.08 µM,0.595
same,relative viability,NCI-H1734; first compound 0.253 µM,0.841
same,relative viability,NCI-H1734; first compound 0.8 µM,0.729
same,relative viability,NCI-H1734; first compound 2.53 µM,0.662
same,relative viability,NCI-H1734; first compound 8 µM,0.706
same,relative viability,HCC-827; first compound 0.08 µM,0.957
same,relative viability,HCC-827; first compound 0.253 µM,1.02
same,relative viability,HCC-827; first compound 0.8 µM,1.01
same,relative viability,HCC-827; first compound 2.53 µM,0.826
same,relative viability,HCC-827; first compound 8 µM,0.979
same,relative viability,NCI-H2009; first compound 0.08 µM,1.18
same,relative viability,NCI-H2009; first compound 0.253 µM,1.27
same,relative viability,NCI-H2009; first compound 0.8 µM,1.18
same,relative viability,NCI-H2009; first compound 2.53 µM,1.14
same,relative viability,NCI-H2009; first compound 8 µM,0.811
same,relative viability,LOU-NH91; first compound 0.08 µM,0.724
same,relative viability,LOU-NH91; first compound 0.253 µM,0.764
same,relative viability,LOU-NH91; first compound 0.8 µM,0.632
same,relative viability,LOU-NH91; first compound 2.53 µM,0.593
same,relative viability,LOU-NH91; first compound 8 µM,0.713
same,relative viability,HARA; first compound 0.08 µM,0.754
same,relative viability,HARA; first compound 0.253 µM,0.748
same,relative viability,HARA; first compound 0.8 µM,0.719
same,relative viability,HARA; first compound 2.53 µM,0.81
same,relative viability,HARA; first compound 8 µM,0.584
same,relative viability,NCI-H1395; first compound 0.08 µM,1.13
same,relative viability,NCI-H1395; first compound 0.253 µM,1.13
same,relative viability,NCI-H1395; first compound 0.8 µM,1.19
same,relative viability,NCI-H1395; first compound 2.53 µM,0.907
same,relative viability,NCI-H1395; first compound 8 µM,1.05
same,relative viability,BEN; first compound 0.08 µM,0.912
same,relative viability,BEN; first compound 0.253 µM,1.06
same,relative viability,BEN; first compound 0.8 µM,1.32
same,relative viability,BEN; first compound 2.53 µM,1
same,relative viability,BEN; first compound 8 µM,1.46
same,relative viability,NCI-H661; first compound 0.08 µM,0.541
same,relative viability,NCI-H661; first compound 0.253 µM,0.753
same,relative viability,NCI-H661; first compound 0.8 µM,0.594
same,relative viability,NCI-H661; first compound 2.53 µM,0.512
same,relative viability,NCI-H661; first compound 8 µM,0.98
same,relative viability,NCI-H2405; first compound 0.08 µM,0.749
same,relative viability,NCI-H2405; first compound 0.253 µM,0.777
same,relative viability,NCI-H2405; first compound 0.8 µM,0.792
same,relative viability,NCI-H2405; first compound 2.53 µM,0.73
same,relative viability,NCI-H2405; first compound 8 µM,0.614
same,relative viability,NCI-H1993; first compound 0.08 µM,0.735
same,relative viability,NCI-H1993; first compound 0.253 µM,0.687
same,relative viability,NCI-H1993; first compound 0.8 µM,0.69
same,relative viability,NCI-H1993; first compound 2.53 µM,0.68
same,relative viability,NCI-H1993; first compound 8 µM,0.718
same,relative viability,NCI-H2170; first compound 0.08 µM,0.791
same,relative viability,NCI-H2170; first compound 0.253 µM,0.835
same,relative viability,NCI-H2170; first compound 0.8 µM,0.933
same,relative viability,NCI-H2170; first compound 2.53 µM,0.747
same,relative viability,NCI-H2170; first compound 8 µM,0.841
same,relative viability,SK-LU-1; first compound 0.08 µM,1.03
same,relative viability,SK-LU-1; first compound 0.253 µM,1.12
same,relative viability,SK-LU-1; first compound 0.8 µM,1.26
same,relative viability,SK-LU-1; first compound 2.53 µM,0.991
same,relative viability,SK-LU-1; first compound 8 µM,0.977
same,relative viability,NCI-H1437; first compound 0.08 µM,1.07
same,relative viability,NCI-H1437; first compound 0.253 µM,1.08
same,relative viability,NCI-H1437; first compound 0.8 µM,1.15
same,relative viability,NCI-H1437; first compound 2.53 µM,0.989
same,relative viability,NCI-H1437; first compound 8 µM,1.08
same,relative viability,NCI-H2087; first compound 0.08 µM,1.22
same,relative viability,NCI-H2087; first compound 0.253 µM,1.19
same,relative viability,NCI-H2087; first compound 0.8 µM,1.09
same,relative viability,NCI-H2087; first compound 2.53 µM,1.12
same,relative viability,NCI-H2087; first compound 8 µM,1.03
same,relative viability,NCI-H647; first compound 0.08 µM,1.4
same,relative viability,NCI-H647; first compound 0.253 µM,1.47
same,relative viability,NCI-H647; first compound 0.8 µM,1.31
same,relative viability,NCI-H647; first compound 2.53 µM,0.869
same,relative viability,NCI-H647; first compound 8 µM,0.977
same,relative viability,NCI-H1792; first compound 0.253 µM,0.722
same,relative viability,NCI-H1792; first compound 0.8 µM,0.741
same,relative viability,NCI-H1792; first compound 2.53 µM,0.674
same,relative viability,NCI-H1792; first compound 8 µM,0.712
same,relative viability,EKVX; first compound 0.08 µM,1.05
same,relative viability,EKVX; first compound 0.253 µM,0.963
same,relative viability,EKVX; first compound 0.8 µM,0.805
same,relative viability,EKVX; first compound 2.53 µM,1
same,relative viability,EKVX; first compound 8 µM,0.755
same,relative viability,NCI-H1355; first compound 0.08 µM,0.726
same,relative viability,NCI-H1355; first compound 0.253 µM,0.949
same,relative viability,NCI-H1355; first compound 0.8 µM,0.601
same,relative viability,NCI-H1355; first compound 2.53 µM,0.748
same,relative viability,NCI-H1355; first compound 8 µM,0.704
same,relative viability,HCC-366; first compound 0.08 µM,0.345
same,relative viability,HCC-366; first compound 0.253 µM,0.547
same,relative viability,HCC-366; first compound 0.8 µM,0.269
same,relative viability,HCC-366; first compound 2.53 µM,0.312
same,relative viability,HCC-366; first compound 8 µM,0.318
COc1nc(C)cnc1NS(=O)(=O)c1cccnc1-c1ccc(-c2nnco2)cc1 [Zibotentan] + CS(=O)(=O)CCNCc1ccc(-c2ccc3ncnc(Nc4ccc(OCc5cccc(F)c5)c(Cl)c4)c3c2)o1 [Lapatinib] (partner 2 µM),relative viability,SK-MES-1; first compound 0.08 µM,0.505
same,relative viability,SK-MES-1; first compound 0.253 µM,0.453
same,relative viability,SK-MES-1; first compound 0.8 µM,0.498
same,relative viability,SK-MES-1; first compound 2.53 µM,0.509
same,relative viability,NCI-H1734; first compound 0.08 µM,1.2
same,relative viability,NCI-H1734; first compound 0.253 µM,1.04
same,relative viability,NCI-H1734; first compound 0.8 µM,0.996
same,relative viability,NCI-H1734; first compound 2.53 µM,1.19
same,relative viability,HCC-827; first compound 0.08 µM,0.157
same,relative viability,HCC-827; first compound 0.253 µM,0.191
same,relative viability,HCC-827; first compound 0.8 µM,0.214
same,relative viability,HCC-827; first compound 2.53 µM,0.223
same,relative viability,NCI-H2009; first compound 0.08 µM,0.921
same,relative viability,NCI-H2009; first compound 0.253 µM,0.82
same,relative viability,NCI-H2009; first compound 0.8 µM,1
same,relative viability,NCI-H2009; first compound 2.53 µM,1.02
same,relative viability,LOU-NH91; first compound 0.08 µM,0.835
same,relative viability,LOU-NH91; first compound 0.253 µM,0.662
same,relative viability,LOU-NH91; first compound 0.8 µM,0.771
same,relative viability,LOU-NH91; first compound 2.53 µM,0.782
same,relative viability,HARA; first compound 0.08 µM,0.734
same,relative viability,HARA; first compound 0.253 µM,0.813
same,relative viability,HARA; first compound 0.8 µM,0.742
same,relative viability,HARA; first compound 2.53 µM,0.837
same,relative viability,NCI-H1395; first compound 0.08 µM,1.08
same,relative viability,NCI-H1395; first compound 0.253 µM,0.883
same,relative viability,NCI-H1395; first compound 0.8 µM,0.952
same,relative viability,NCI-H1395; first compound 2.53 µM,1.08
same,relative viability,BEN; first compound 0.08 µM,0.762
same,relative viability,BEN; first compound 0.253 µM,0.721
same,relative viability,BEN; first compound 0.8 µM,0.68
same,relative viability,BEN; first compound 2.53 µM,0.605
same,relative viability,NCI-H661; first compound 0.08 µM,0.453
same,relative viability,NCI-H661; first compound 0.253 µM,0.445
same,relative viability,NCI-H661; first compound 0.8 µM,0.445
same,relative viability,NCI-H661; first compound 2.53 µM,0.46
same,relative viability,NCI-H2405; first compound 0.08 µM,1.18
same,relative viability,NCI-H2405; first compound 0.253 µM,0.84
same,relative viability,NCI-H2405; first compound 0.8 µM,1.06
same,relative viability,NCI-H2405; first compound 2.53 µM,1.09
same,relative viability,NCI-H1993; first compound 0.253 µM,0.792
same,relative viability,NCI-H1993; first compound 0.8 µM,0.88
same,relative viability,NCI-H1993; first compound 2.53 µM,0.768
same,relative viability,NCI-H2170; first compound 0.08 µM,0.27
same,relative viability,NCI-H2170; first compound 0.253 µM,0.264
same,relative viability,NCI-H2170; first compound 0.8 µM,0.251
same,relative viability,NCI-H2170; first compound 2.53 µM,0.285
same,relative viability,SK-LU-1; first compound 0.08 µM,0.831
same,relative viability,SK-LU-1; first compound 0.253 µM,0.766
same,relative viability,SK-LU-1; first compound 0.8 µM,0.928
same,relative viability,SK-LU-1; first compound 2.53 µM,0.878
same,relative viability,NCI-H1437; first compound 0.08 µM,0.73
same,relative viability,NCI-H1437; first compound 0.253 µM,0.557
same,relative viability,NCI-H1437; first compound 0.8 µM,0.804
same,relative viability,NCI-H1437; first compound 2.53 µM,0.827
same,relative viability,NCI-H2087; first compound 0.08 µM,1.17
same,relative viability,NCI-H2087; first compound 0.253 µM,0.955
same,relative viability,NCI-H2087; first compound 0.8 µM,1.06
same,relative viability,NCI-H2087; first compound 2.53 µM,1.09
same,relative viability,NCI-H647; first compound 0.08 µM,1.23
same,relative viability,NCI-H647; first compound 0.253 µM,0.924
same,relative viability,NCI-H647; first compound 0.8 µM,0.968
same,relative viability,NCI-H647; first compound 2.53 µM,1.06
same,relative viability,NCI-H1792; first compound 0.08 µM,1.01
same,relative viability,NCI-H1792; first compound 0.253 µM,0.896
same,relative viability,NCI-H1792; first compound 0.8 µM,0.816
same,relative viability,NCI-H1792; first compound 2.53 µM,0.848
same,relative viability,EKVX; first compound 0.08 µM,0.184
same,relative viability,EKVX; first compound 0.253 µM,0.216
same,relative viability,EKVX; first compound 0.8 µM,0.194
same,relative viability,EKVX; first compound 2.53 µM,0.198
same,relative viability,NCI-H1355; first compound 0.08 µM,1.01
same,relative viability,NCI-H1355; first compound 0.253 µM,1.03
same,relative viability,NCI-H1355; first compound 0.8 µM,0.946
same,relative viability,NCI-H1355; first compound 2.53 µM,0.977
same,relative viability,HCC-366; first compound 0.08 µM,1.17
same,relative viability,HCC-366; first compound 0.253 µM,0.955
same,relative viability,HCC-366; first compound 0.8 µM,0.653
same,relative viability,HCC-366; first compound 2.53 µM,1.02
